According to EP0258134A1, “Therapeutical compositions containing benzhydryl thiomethane derivatives” (LABORATOIRE L. LAFON, priority 1986, dated 1988):

Tests used:
Solubility in water = type: physicochemical; settings: water
Description: Le composé est une poudre blanche, insoluble dans l'éther de pétrole, soluble dans l'éther, l'acé-tate d'éthyle et les alcools. Sa solubilité dans l'eau est inférieure à 0,1%.

souris [1] = test: Pretoxicity, i.p., 3 mice per dose; type: in vivo
Protocol: Le composé CRL 41 334, en suspension dans une solution de gomme arabique, a été administré par voie intrapéritonéale sous un volume de 20 ml/kg chez la souris (mâle, NMRI, C.E.R. Janvier) et de 5 ml/kg chez le rat (mâle, CD₁; SPRAGUE DAWLEY, Charles River).
I - PRETOXICITE ( 3 souris par dose)
Le CRL 41 055, en suspension dans une solution de gomme arabique, a été administré par voie intrapéritonéale sous un volume de 20 ml/kg chez la souris (mâle, NMRI, Evic Ceba).
Prétoxicite (3 souris par dose)
Le CRL 40 956, en suspension dans une solution de gomme arabique a été administré par voie intrapéritonéale sous un volume de 20 ml/kg chez la souris (mâle, NMRI, Evic Céba) et de 5 ml/kg chez le rat (mâle, CD₁, Sprague Dawley, Charles River).
Prétoxicité ( 3 souris par dose)

souris [2] = test: Interaction with apomorphine, mouse; type: in vivo
Protocol: Des lots de 6 souris reçoivent le composé CRL 41 334 une demi-heure avant l'injection sous-cutanée d'apomorphine, à la dose de 1 ou 16 mg/kg. • a) Apomorphine 1 mg/kg • b) Apomorphine 16 mg/kg

rat [3] = test: Interaction with apomorphine, rat; type: in vivo; settings: 16 et 64 mg/kg, apomorphine 0,5 mg/kg s.c.
Protocol: Le composé CRL 41 334 est administré à des lots de 6 rats une demi-heure avant l'injection sous-cutanée de 0,5 mg/kg d'apomorphine.
Le CRL 40 956 est administré à des lots de 6 rats une demi-heure avant l'injection sous cutanée de 0,5 mg/kg d'apomorphine.

rat [4] = test: Interaction with amphetamine, rat; type: in vivo; settings: rat, 16, mais surtout 64 mg/kg, amphétamine 2 mg/kg i.p.
Protocol: L'amphétamine (2 mg/kg) est injectée par Voie intrapéritonéale à des lots de 6 rats, une demi-heure après l'administration du composé CRL 41 334.

souris [5] = test: Four-plate test; type: in vivo; settings: half an hour after administration
Description: (§1) Le test est pratiqué sur des lots de 10 souris, une demi-heure après l'administration du composé CRL 41 334.

souris [6] = test: Traction test; type: in vivo; settings: half an hour after administration
Description: as §1

souris [7] = test: Spontaneous motility (actimeter); type: in vivo
Protocol: Après avoir reçu le composé CRL 41 334, les souris sont placées en actimètre où leur motilité est enregistrée pendant 30 minutes.
Une demi-heure après avoir reçu le CRL 41 055, les souris (6 par dose, 12 témoins) sont placées en actimètre où leur motilité est enregistrée pendant 30 minutes.
Une demi-heure après avoir reçu le CRL 40 956, les souris (6 par dose, 12 témoins) sont placées en actimètre ou leur motilité est enregistrée pendant 30 minutes.

souris [8] = test: Interaction with barbital; type: in vivo; settings: souris, 8, 32 et 128mg/kg, barbital 220 mg/kg i.p.
Protocol: Une demi-heure après l'administration du composé CRL 41 334, des lots de 20 souris reçoivent une injection intrapéritonéale de barbital ([…]).
Une demi-heure après l'administration du CRL 40 956 des lots de 10 souris reçoivent une injection intrapéritonéale de 200 mg/kg de barbital.

souris [9] = test: Behavioural despair (forced immersion); type: in vivo; settings: souris, 8, 32 et 128 mg/kg
Description: Une demi-heure après avoir reçu le composé CRL 41 334, des lots de 6 souris (mâles, CD₁, Charles River) sont placés dans un bécher rempli d'eau sur une hauteur de 6 cm. On note la durée totale d'immobilité entre la 2ème et la 6ème minutes suivant l'immersion.
Une demi-heure après avoir reçu le CRL 40 956, des lots de 10 souris (mâles CD₁ Charles River) sont plongées dans une enceinte réduite remplie d'eau sur une hauteur de 6 cm. On note la durée totale d'immobilité entre la 2ème et la 6ème minute suivant l'immersion.

For `NC(=O)CSC(c1ccc(F)cc1)c1ccc(F)cc1` [CRL 41 334, 2-(4,4ʹ-difluorobenzhydrylthio)acétamide], the solubility (Solubility in water) was < 1000 µg/mL, the symptômes (souris [1]; 128 mg/kg i.p.) was “sédation, puis excitation 2 heures après” and the symptômes (souris [1]; 256 mg/kg i.p.) was “sédation suivie d'excitation 2 heures après l'injection”. The convulsions (souris [1]; 256 mg/kg i.p., à 15 minutes) was 3/3, the symptômes (souris [1]; 512 mg/kg i.p.) was “démarche titubante” and the convulsions (souris [1]; 512 mg/kg i.p., pendant les 10 premières minutes) was 3/3. For the same compound, the mortalité (souris [1]; 512 mg/kg i.p., 1/3 en 15 minutes et 2/3 en 24 heures) was 3/3, the “hypothermie induite par l'apomorphine” value (souris [2]; 128 mg/kg, apomorphine 1 mg/kg s.c.) was “aggrave l'hypothermie induite par l'apomorphine” and the température (souris [2]; 128 mg/kg, compound alone) was “entraîne une hypothermie”. For the same compound, the “comportements de verticalisation et de stéréotypies” value (souris [2]; apomorphine 1 ou 16 mg/kg s.c.) was “NE SONT PAS MODIFIES”, the “stéréotypies induites par l'apomorphine” value (rat [3]) was “potentialise” and the “stéréotypies amphétaminiques” value (rat [4]) was “potentialise les stéréotypies amphétaminiques”. For the same compound, the “nombre de passages punis” value (souris [5]) was “ne modifie pas”, the incapacité motrice (souris [6]) was “ne provoque pas d'incapacité motrice majeure” and the “motilité spontanée” value (souris [7]; souris, 128 mg/kg, 30 minutes avant passage dans l'actimètre) was “cet effet n'apparaît plus”. For the same compound, the “motilité spontanée” value (souris [7]; souris, 8, mais surtout 32 et 128 mg/kg, 2 heures avant passage dans l'actimètre) was “augmentation de la motilité spontanée”, the “motilité spontanée” value (souris [7]; souris, 32 et 64 mg/kg, 30 minutes avant passage dans l'actimètre) was “augmentation de la motilité” and the “durée du sommeil barbiturique” value (souris [8]) was “diminution importante de la durée du sommeil barbiturique”. For the same compound, the “durée de l'immobilité” value (souris [9]) was “diminue la durée de l'immobilité”.
